This note sets out measurements from PMC5429603, “Discovery and characterization of verinurad, a potent and specific inhibitor of URAT1 for the treatment of hyperuricemia and gout” (Scientific Reports, 2017).

Each structure is given as a SMILES string.

Format in all cases: cell-based
In one assay the target is T1, human URAT1 h-S35N (Homo sapiens, UniProt Q96S37, S35N).
T1 construct: expressed in transfected cells; host or cells: HEK-293T
Nature of the assay: URAT1 activity assay, h-S35N. The source says:
Human URAT1 (GenBank BC053348.1, Homo sapiens SLC22A12), rat URAT1 (NCBI NM_001034943.1, Rattus norvegicus Slc22a12) and human OAT4 (NCBI NM_018484.2, Homo sapiens SLC22A11) genes were purchased from Origene Technologies, Inc. and subcloned into pCMV6/neo using NotI. Where indicated, controls transfections used pCMV6/neo. Mutants were produced by site-directed mutagenesis using the QuikChange Lightning Multi Site-Directed Mutagenesis Kit (Agilent Technologies). […] Mutagenic primer sequences are provided in ref. [15] and mutagenic primer sequences for previously unreported mutants shown in Supplementary Table 1. All constructs used in this study were untagged. Human OAT1 was purchased from Fisher Scientific (catalog # MHS1010–7508183 in pSPORT6, NCBI NM_153276.2, Homo sapiens SLC22A6).
HEK-293T cells were maintained in DMEM/high glucose/L-glutamine/HEPES supplemented with 1 mM sodium pyruvate (Life Technologies) and 10% FBS (PAA Laboratories) at 37 °C in 5% CO2. […]
(§1) URAT1 and OAT4 activity assays were performed in assay buffer consisting of 25 mM MES pH 5.5 (from a 1 M MES solution [Sigma] adjusted to pH 5.5 with sodium hydroxide), 125 mM sodium gluconate, 4.8 mM potassium gluconate, 1.2 mM monobasic potassium phosphate, 1.2 mM magnesium sulfate, 1.3 mM calcium gluconate and 5.6 mM glucose. […] Each treatment was measured in triplicate.

The target in another assay is T2, human OAT4 (Homo sapiens, UniProt Q9NSA0).
T2 construct: host or cells: HEK-293T
Description: OAT4 activity assay (carboxyfluorescein transport). The method, then: HEK-293T cells were maintained in DMEM/high glucose/L-glutamine/HEPES supplemented with 1 mM sodium pyruvate (Life Technologies) and 10% FBS (PAA Laboratories) at 37 °C in 5% CO2. To express URAT1, OAT4 or OAT1, plasmids were reverse transfected into HEK-293T cells. DNA (10 µg) was mixed with 30 µl of DreamFect Gold (Boca Scientific) in 2 ml OptiMem (Life Technologies). After 20 minutes, 18 ml of media containing 2 × 10^7 cells in suspension was added and mixed, and 200 µl per well were plated onto white clear-bottomed poly-D-lysine coated 96-well plates (BD Biosciences). The cells were assayed the following day.
as §1, with “glucose. URAT1 inhibitors were serially diluted into assay buffer and added to the cells for 5 minutes prior to addition of substrate. URAT1-expressing cells were incubated with 100 µM ^14C-uric acid for 10 minutes and OAT4-expressing cells were incubated with 20 µM carboxyfluorescein (Life Technologies, Inc.) for 5 minutes.” for “glucose.”

A further assay concerns the target T3, human OAT1 (Homo sapiens, UniProt Q4U2R8).
T3 construct: host or cells: HEK-293T
Nature of the assay: OAT1 activity assay (carboxyfluorescein transport). How it is done:
DNA (10 μg) was mixed with 30 μl of […] Gold (Boca Scientific) in 2 ml OptiMem (Life Technologies). […] The cells were assayed the following day. OAT1-expressing cells were assayed in a buffer containing 20 mM HEPES (from a 1 M solution at pH 7.3; USB Corporation), 130 mM sodium chloride, 4 mM potassium chloride, 1 mM magnesium sulfate, 1 mM calcium chloride, 1 mM sodium phosphate dibasic and 18 mM glucose. […] Cells were then solubilized in 0.1 N sodium hydroxide prior to fluorimetry measurements. Each treatment was measured in triplicate.

T1 sequence (Q96S37 whole entry S35N): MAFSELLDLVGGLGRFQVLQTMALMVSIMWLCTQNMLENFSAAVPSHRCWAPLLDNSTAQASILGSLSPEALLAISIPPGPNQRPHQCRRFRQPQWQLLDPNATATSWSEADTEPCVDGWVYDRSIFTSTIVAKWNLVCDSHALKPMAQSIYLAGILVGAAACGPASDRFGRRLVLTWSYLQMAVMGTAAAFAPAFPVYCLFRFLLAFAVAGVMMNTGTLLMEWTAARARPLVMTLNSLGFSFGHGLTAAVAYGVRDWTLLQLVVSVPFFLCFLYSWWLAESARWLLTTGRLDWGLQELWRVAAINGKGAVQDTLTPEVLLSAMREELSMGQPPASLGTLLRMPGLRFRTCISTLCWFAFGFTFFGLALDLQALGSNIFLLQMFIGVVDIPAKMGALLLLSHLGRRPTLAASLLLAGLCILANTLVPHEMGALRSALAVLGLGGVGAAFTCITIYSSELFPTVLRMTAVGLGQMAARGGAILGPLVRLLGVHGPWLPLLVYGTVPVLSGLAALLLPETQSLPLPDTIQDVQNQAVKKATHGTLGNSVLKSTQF
T3 sequence (Q4U2R8 1-550 isoform Q4U2R8-2): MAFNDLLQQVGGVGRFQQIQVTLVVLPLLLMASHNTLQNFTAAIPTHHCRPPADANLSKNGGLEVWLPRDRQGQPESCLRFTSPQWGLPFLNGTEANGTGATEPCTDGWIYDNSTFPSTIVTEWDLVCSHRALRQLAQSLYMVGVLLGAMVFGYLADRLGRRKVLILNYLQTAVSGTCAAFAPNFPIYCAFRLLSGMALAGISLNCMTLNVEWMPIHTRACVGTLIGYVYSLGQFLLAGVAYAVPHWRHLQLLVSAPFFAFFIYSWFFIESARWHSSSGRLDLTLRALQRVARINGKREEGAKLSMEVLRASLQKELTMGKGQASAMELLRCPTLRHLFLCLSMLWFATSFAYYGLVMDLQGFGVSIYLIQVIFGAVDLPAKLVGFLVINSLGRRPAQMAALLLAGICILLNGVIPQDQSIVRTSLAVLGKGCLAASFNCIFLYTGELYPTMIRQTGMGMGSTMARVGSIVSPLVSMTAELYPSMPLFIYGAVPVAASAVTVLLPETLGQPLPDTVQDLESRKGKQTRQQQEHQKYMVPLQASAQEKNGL
T2 sequence (Q9NSA0 whole entry): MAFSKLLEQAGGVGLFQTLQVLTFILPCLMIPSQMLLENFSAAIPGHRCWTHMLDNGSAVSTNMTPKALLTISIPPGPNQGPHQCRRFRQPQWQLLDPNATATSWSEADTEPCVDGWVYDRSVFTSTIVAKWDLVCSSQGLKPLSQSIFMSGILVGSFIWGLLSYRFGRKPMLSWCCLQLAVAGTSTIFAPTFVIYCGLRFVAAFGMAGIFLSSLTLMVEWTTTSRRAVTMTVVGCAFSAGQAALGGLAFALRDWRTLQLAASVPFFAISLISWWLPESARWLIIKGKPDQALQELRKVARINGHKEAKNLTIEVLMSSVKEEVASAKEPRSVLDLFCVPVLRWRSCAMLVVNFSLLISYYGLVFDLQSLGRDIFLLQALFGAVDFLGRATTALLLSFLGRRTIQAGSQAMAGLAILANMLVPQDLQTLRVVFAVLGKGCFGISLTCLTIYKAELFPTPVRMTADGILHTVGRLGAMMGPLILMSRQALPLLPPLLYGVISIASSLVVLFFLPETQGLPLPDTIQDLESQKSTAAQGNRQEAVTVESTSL

In the case of `CC(C)(Sc1ccncc1-c1ccc(C#N)c2ccccc12)C(=O)O` [Verinurad, 2-((3-(4-cyanonaphthalen-1-yl)pyrindin-4-yl)thio)-2-methylpropanoic acid], on human URAT1 h-S35N, the “fold lower affinity relative to human URAT1” value is reported as 14 fold. Moreover, the 50% inhibitory concentration (IC50) on human URAT1 h-S35N (TM1 point mutant, read-out: Verinurad affinity (IC50)) was found to be 0.36 ± 0.15 µM; at human OAT4 (human OAT4 in HEK-293T, 20 µM carboxyfluorescein, read-out: IC50, inhibition of transport activity) it was 5.9 ± 1.4 µM; on human OAT1 (human OAT1 in HEK-293T, 20 µM carboxyfluorescein, read-out: IC50, inhibition of transport activity), 4.6 ± 1.4 µM. The “fold lower affinity compared to URAT1” value on human OAT4 (human OAT4 vs human URAT1) and at human OAT1 (human OAT1 vs human URAT1) was “approximately 200 fold” throughout.

Broadly, the IC50 is the concentration at which inhibition is half-maximal.
